Laboratory results taken from patent US7504508B2, “PGD2 receptor antagonists for the treatment of inflammatory diseases” (Millennium Pharmaceuticals, Inc., priority 2002, dated 2009).

biological target: T1, cloned human CRTH2 receptor (Homo sapiens, UniProt Q9Y5Y4); experiment: Radioligand membrane binding assay: inhibition of [3H] PGD2 binding to CRTH2 (Scintillation Proximity Assay); conditions: inhibition of [3H] PGD2 binding to membranes of HEK-293 cells stably expressing human CRTH2; SPA; 10 point curve from 10 μM; room temperature, approximately 2 hours
T1 construct: purchased Biosignal; host or cells: HEK-293 cells stably expressing human CRTH2 and G-alpha-16 (membranes)
T1 sequence (Q9Y5Y4 1-395): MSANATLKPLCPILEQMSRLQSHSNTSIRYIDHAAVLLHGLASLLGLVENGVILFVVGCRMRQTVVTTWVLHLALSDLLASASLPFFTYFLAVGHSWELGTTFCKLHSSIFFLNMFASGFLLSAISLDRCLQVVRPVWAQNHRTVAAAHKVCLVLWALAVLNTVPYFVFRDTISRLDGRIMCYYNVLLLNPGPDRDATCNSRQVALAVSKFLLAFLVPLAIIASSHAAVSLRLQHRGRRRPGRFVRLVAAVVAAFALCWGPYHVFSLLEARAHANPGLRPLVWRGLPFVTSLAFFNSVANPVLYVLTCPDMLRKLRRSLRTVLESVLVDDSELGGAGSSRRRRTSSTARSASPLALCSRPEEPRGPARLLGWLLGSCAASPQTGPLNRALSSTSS
Experimental: This radioligand membrane binding assay evaluates the ability of compounds to inhibit [^3H] Prostaglandin D2 (PGD2) binding to the cloned human CRTH2 receptor stably expressed in HEK-293 cells (expressing human CRTh2 receptor and α subunit or the heteronimeric G protein 16 were prepared by Biosignal Company) using Scintillation Proximity Assay.
A binding buffer containing 50 mM Tris-HCl (pH 7.5), 5 mM MgCl2 and 1 mM EDTA was prepared immediately prior to performing the assay. A bead/membrane solution at twice the final assay concentration comprising membranes (membranes bought from Biosignal) from the HEK-293 cells cloned to express CRTH2 receptor bound to and [3H] PGD2 at twotimes the final assay concentration were prepared and stored on ice before adding to wells. Cold PGD2 at twenty times the final assay concentration was prepared and stored on ice before adding to wells defining non-specific binding (NSB) corning plates #3653 were used for this assay.
10 mM stock concentrations of compounds in 100% DMSO were prepared and stored at room temperature. A 10 point concentration response curve was then constructed for each compound, starting at 10 μM (final assay concentration). The compounds were prepared at 40 times final assay concentrations with nine consequent-3-fold dilutions.
0.1 μl of each concentration of compound were added to the appropriate well of the 384 plate and 2 μl of cold PGD2 was added into the wells defining NSB. 20 μl of [^3H] PGD2 and then 20 μl of 2× of bead/membrane solution were then added to each well.
The plates were allowed to incubate at room temperature for approximately 2 hours and then counted on Packard Topcount using SPA tritium protocol for 1 minute/well.
The percent inhibition of PGD2 binding (PGD2 used at the KD value or lower) to the HEK-293 cell membranes was determined, the assay was always run as duplicate for n=1 for a total of n=2.

| SMILES | Ki |
| --- | --- |
| CCC(=O)N(c1ccc(C(F)(F)F)cc1)[C@@H]1C[C@H](C)N(C(=O)c2ccc(F)cc2)c2ccccc21 (racemic) [Compound B-13, (±)-Cis-N-[1-(4-Fluoro-benzoyl)-2-methyl-1,2,3,4-tetrahydro-quinolin-4-yl]-N-(4-trifluoromethyl-phenyl)-propionamide] | < 10 µM |
| COc1ccc(C(=O)N2c3ccccc3[C@H](N(C(C)=O)c3ccc(CC(=O)O)cc3)C[C@@H]2C)cc1 (racemic) [Compound B-39, (±)-Cis-(4-{acetyl-[1-(4-methoxy-benzoyl)-2-methyl-1,2,3,4-tetrahydro-quinolin-4-yl]-amino}-phenyl)-acetic acid] | < 10 µM |
| COc1ccc(C(=O)N2c3ccccc3[C@H](N(C(C)=O)c3cccc(C(=O)O)c3)C[C@@H]2C)cc1 (racemic) [Compound B-40, (±)-Cis-3-{acetyl-[1-(4-methoxy-benzoyl)-2-methyl-1,2,3,4-tetrahydro-quinolin-4-yl]-amino}-benzoic acid] | < 10 µM |
| CC(=O)N(c1ccc(Oc2ccccc2)cc1)[C@@H]1C[C@H](C)N(C(=O)c2ccc(F)cc2)c2ccccc21 (racemic) [Compound B-51, (±)-Cis-N-[1-(4-fluoro-benzoyl)-2-methyl-1,2,3,4-tetrahydro-quinolin-4-yl]-N-(4-phenoxy-phenyl)-acetamide] | < 10 µM |
| COc1cccc(C(=O)N2c3ccccc3[C@H](N(C(C)=O)C3CCCCC3)C[C@@H]2C)c1 (racemic) [Compound B-53, (±)-Cis-N-cyclohexyl-N-[1-(3-methoxy-benzoyl)-2-methyl-1,2,3,4-tetrahydro-quinolin-4-yl]-acetamide] | < 60 µM |
| CCC(=O)N(c1ccc(Cl)cc1)[C@@H]1C[C@H](C)N(C(=O)c2ccc(F)cc2)c2ccc(OC)cc21 (racemic) [Compound B-59, (±)-Cis-N-(4-chloro-phenyl)-N-[1-(4-fluoro-benzoyl)-6-methoxy-2-methyl-1,2,3,4-tetrahydro-quinolin-4-yl]-propionamide] | < 10 µM |
| CCC(=O)N(c1ccc(Cl)cc1)[C@@H]1C[C@H](C)N(C(=O)c2ccc(F)cc2)c2ccc(OCCN(CC)CC)cc21 (racemic) [Compound B-63, (±)-Cis-N-(4-Chloro-phenyl)-N-[6-(2-diethylamino-ethoxy)-1-(4-fluoro-benzoyl)-2-methyl-1,2,3,4-tetrahydro-quinolin-4-yl]-propionamide] | < 10 µM |
| CCOC(=O)C(C)(C)Oc1ccc2c(c1)[C@H](N(C(=O)CC)c1ccc(Cl)cc1)C[C@H](C)N2C(=O)c1ccc(F)cc1 (racemic) [Compound B-64, (±)-Cis-2-[4-[(4-chloro-phenyl)-propionyl-amino]-1-(4-fluoro-benzoyl)-2-methyl-1,2,3,4-tetrahydro-quinolin-6-yloxy]-2-methyl-propionic acid ethyl ester] | < 10 µM |
| CCC(=O)N(c1ccc(Cl)cc1)[C@@H]1C[C@H](C)N(C(=O)c2ccc(F)cc2)c2ccc(OCC(=O)O)cc21 (racemic) [Compound B-65, (±)-Cis-[4-[(4-chloro-phenyl)-propionyl-amino]-1-(4-fluoro-benzoyl)-2-methyl-1,2,3,4tetrahydro-quinolin-6-yloxy]-acetic acid] | < 10 µM |
| CCC(=O)N(c1ccc(Cl)cc1)[C@@H]1C[C@H](C)N(C(=O)c2ccc(F)cc2)c2ccc(OC(C)(C)C(=O)O)cc21 (racemic) [Compound B-66, (±)-Cis-2-[4-[(4-chloro-phenyl)-propionyl-amino]-1-(4-fluoro-benzoyl)-2-methyl-1,2,3,4-tetrahydro-quinolin-6-yloxy]-2-methyl-propionic acid] | < 10 µM |
| CCC(=O)N(c1ccc(Cl)cc1)[C@@H]1C[C@H](C)N(C(=O)c2ccc(F)cc2)c2ccc(N3CCOCC3)cc21 (racemic) [Compound B-70, (±)-Cis-N-(4-chloro-phenyl)-N-[1-(4-fluoro-benzoyl)-2-methyl-6-morpholin-4-yl-1,2,3,4-tetrahydro-quinolin-4-yl]-propionamide] | < 10 µM |
| CCC(=O)N(c1ccc(Cl)cc1)C1CC(C)N(C(=O)c2ccc(F)cc2)c2ccc(/C=C/C(=O)O)cc21 (racemic) [Compound B-73, (±)-Cis-3-[4-[(4-chloro-phenyl)-propionyl-amino]-1-(4-fluoro-benzoyl)-2-methyl-1,2,3,4-tetrahydro-quinolin-6-yl]-acrylic acid] | < 10 µM |
| COc1cccc(C(=O)N2c3c(C)cccc3[C@H](N(C(C)=O)c3ccc(Cl)cc3)C[C@@H]2C)c1 (racemic) [Compound B-74, (±)-Cis-N-(4-chloro-phenyl)-N-[1-(3-methoxy-benzoyl)-2,8-dimethyl-1,2,3,4-tetrahydro-quinolin-4-yl]-acetamide] | < 10 µM |

Other lines, results leading:

| Ki | SMILES |
| --- | --- |
| < 10 µM | CCN(CC)c1ccc(N(C(C)=O)[C@@H]2C[C@H](C)N(C(=O)c3ccc(N(C)C)cc3)c3cc(N(CC)CC)ccc32)cc1 (racemic) [Compound B-84, (±)-Cis-N-[7-diethylamino-1-(4-dimethylamino-benzoyl)-2-methyl-1,2,3,4-tetrahydro-quinolin-4-yl]-N-(4-diethylamino-phenyl)-acetamide] |
| < 10 µM | CCC(=O)N(c1ccc(Cl)cc1)[C@@H]1C[C@H](C)N(C(=O)c2ccc(F)cc2)c2cccc(OC)c21 (racemic) [Compound B-86, (±)-Cis-N-(4-chloro-phenyl)-N-[1-(4-fluoro-benzoyl)-5-methoxy-2-methyl-1,2,3,4-tetrahydro-quinolin-4-yl]-propionamide] |
| < 10 µM | CCC(=O)N(c1ccc(Cl)cc1)[C@@H]1C[C@H](CCc2ccccc2)N(C(=O)c2ccc(F)cc2)c2ccccc21 (racemic) [Compound B-97, (±)-Cis-N-(4-chloro-phenyl)-N-[1-(4-fluoro-benzoyl)-2-phenethyl-1,2,3,4-tetrahydro-quinolin-4-yl]-propionamide] |
| < 60 µM | COc1cccc(C(=O)N2c3ccccc3[C@H](N(C(C)=O)c3ccccc3)C[C@@H]2c2ccccc2)c1 (racemic) [Compound B-100, (±)-Cis-N-[1-(3-methoxy-benzoyl)-2-phenyl-1,2,3,4-tetrahydro-quinolin-4-yl]-N-phenyl-acetamide] |
| < 10 µM | CCOC(=O)[C@H]1C[C@@H](N(C(C)=O)c2ccccc2)c2ccccc2N1C(=O)c1ccc(F)cc1 (racemic) [Compound B-101, (±)-Cis-4-(acetyl-phenyl-amino)-1-(4-fluoro-benzoyl)-1,2,3,4-tetrahydro-quinoline-2-carboxylic acid ethyl ester] |
| < 10 µM | CC(=O)N(c1ccccc1)[C@@H]1C[C@H](C(=O)O)N(C(=O)c2ccc(F)cc2)c2ccccc21 (racemic) [Compound B-102, (±)-Cis-4-(acetyl-phenyl-amino)-1-(4-fluoro-benzoyl)-1,2,3,4-tetrahydro-quinoline-2-carboxylic acid] |
| < 10 µM | CCC[C@H]1C[C@@H](N(C(=O)CC)c2ccc(Cl)cc2)c2ccccc2N1C(=O)c1ccc(F)cc1 (racemic) [Compound B-103, (±)-Cis-N-(4-chloro-phenyl)-N-[1-(4-fluoro-benzoyl)-2-propyl-1,2,3,4-tetrahydro-quinolin-4-yl]-propionamide] |
| < 10 µM | CCC(=O)OC[C@H]1C[C@@H](N(C(=O)CC)c2ccc(Cl)cc2)c2ccccc2N1C(=O)c1ccc(F)cc1 (racemic) [Compound B-104, (±)-Cis-propionic acid 4-[(4-chloro-phenyl)-propionyl-amino]-1-(4-fluoro-benzoyl)-1,2,3,4-tetrahydro-quinolin-2-ylmethyl ester] |
| < 10 µM | CCC(=O)N(c1ccc(Cl)cc1)[C@@H]1C[C@H](CO)N(C(=O)c2ccc(F)cc2)c2ccccc21 (racemic) [Compound B-105, (±)-Cis-N-(4-chloro-phenyl)-N-[1-(4-fluoro-benzoyl)-2-hydroxymethyl-1,2,3,4-tetrahydro-quinolin-4-yl]-propionamide] |
| < 10 µM | CCC(=O)N(c1ccc(Cl)cc1)[C@@H]1C[C@H](CN(CC)CC)N(C(=O)c2ccc(F)cc2)c2ccccc21 (racemic) [Compound B-106, (±)-Cis-N-(4-chloro-phenyl)-N-[2-diethylaminomethyl-1-(4-fluoro-benzoyl)-1,2,3,4-tetrahydro-quinolin-4-yl]-propionamide] |
